Calls of active or inactive are those of the source. No cut-off for these calls is given here.
Legend:
[1] = system: GTPase KRas (Homo sapiens), P01116 [G12C]; test: (§1) Inhibition of 6His tagged Mant-GDP loaded human KRAS G12C mutant (1 to 169 residues) expressed in Escherichia coli BL21 (DE3) cells assessed as inhibition of SOS1-mediated nucleotide exchange at 10 uM preincubated with compound for 1 hrs followed by addition of GTP and SOS1 protein and measured every 90 sec for 2 hrs by fluorescence based assay; details: time 3.0 hrs
[2] = system: GTPase KRas (Homo sapiens), P01116 [G12C]; test: as §1, with “[…]” for “SOS1-mediated”, “EDTA” for “SOS1 protein”; details: time 3.0 hrs
[3] = system: NCI-H358; test: Antitumor activity against human NCI-H358 cells harboring KRAS G12C mutant xenografted in BALB/c mouse assessed as increase in cleaved caspase-3 level at 10 to 15 mg/kg, ip administered for 21 days by IHC staining analysis; format: functional, organism-based; details: dose 10-15 mg/kg, time 21.0 day
[4] = system: NCI-H358; test: Inhibition of KRAS signaling in human NCI-H358 cells harboring KRAS G12C mutant assessed as decrease in AKT phosphorylation level at 0.5 to 8 uM incubated for 6 hrs by Western blot analysis relative to control; format: cell-based; details: dose 0.5-8 µM
[5] = system: A549; test: Antiproliferative activity against human A549 cells harboring KRAS G12S mutant assessed as reduction in cell viability incubated for 72 hrs by MTT assay; format: functional, cell-based; details: A549, 72 h
[6] = system: NCI-H358; test: Inhibition of KRAS signaling in human NCI-H358 cells harboring KRAS G12C mutant assessed as decrease in ERK phosphorylation level at 0.5 to 8 uM incubated for 6 hrs by Western blot analysis relative to control; format: cell-based; details: dose 0.5-8 µM
[7] = system: NCI-H23; test: Antiproliferative activity against human NCI-H23 cells harboring KRAS G12C mutant assessed as reduction in cell viability incubated for 72 hrs by MTT assay; format: functional, cell-based; details: NCI-H23, 72 h
[8] = target: GTPase KRas (Homo sapiens) (UniProt P01116); test: Inhibition of KRAS signaling in human NCI-H2228 cells harboring wildtype KRAS at 0.5 to 8 uM incubated for 6 hrs by Western blot analysis; format: cell-based; details: dose 0.5-8 µM
[9] = Selectivity index, ratio of IC50 for human MRC5 cells to IC50 for human NCI-H358 cells harboring KRAS G12C mutant
[10] = Cytotoxicity against human MRC5 cells assessed as reduction in cell viability incubated for 72 hrs by MTT assay; format: toxicity, cell-based
[11] = Selectivity index, ratio of IC50 for human A549 cells harboring KRAS G12S mutant to IC50 for human NCI-H358 cells harboring KRAS G12C mutant; format: functional
[12] = Selectivity index, ratio of IC50 for human A549 cells harboring KRAS G12S mutant to IC50 for human NCI-H23 cells harboring KRAS G12C mutant; format: functional
[13] = system: NCI-H358; test: Antitumor activity against human NCI-H358 cells harboring KRAS G12C mutant xenografted in BALB/c mouse assessed as tumor growth inhibition at 15 mg/kg, ip administered for 21 days; format: functional; details: NCI-H358, 504 h, time 21 day, read-out: TGI
[14] = system: NCI-H358; test: Induction of apoptosis in human NCI-H358 cells assessed as fold change in cleaved caspase-3 level at 0.5 to 8 uM incubated for 6 hrs by Western blot analysis; format: functional; details: dose 0.5-8 µM
[15] = system: GTPase KRas (Homo sapiens), P01116 [G12C]; test: In vivo inhibition of KRAS signaling in BALB/C mouse xenografted with human NCI-H358 cells harboring KRAS G12C mutant assessed as decrease in ERK phosphorylation in tumor at 10 to 15 mg/kg, ip administered for 21 days by IHC staining based analysis; format: functional, organism-based; details: dose 10-15 mg/kg, time 21.0 day
[16] = system: NCI-H358; test: Antitumor activity against human NCI-H358 cells harboring KRAS G12C mutant xenografted in BALB/c mouse assessed as tumor growth inhibition at 10 mg/kg, ip administered for 21 days; format: functional, organism-based; details: time 21.0 day
[17] = system: NCI-H441; test: Antiproliferative activity against human NCI-H441 cells harboring KRAS G12V mutant assessed as reduction in cell viability incubated for 72 hrs by MTT assay; format: functional, cell-based; details: NCI-H441, 72 h
[18] = system: SK-LU-1; test: Antiproliferative activity against human SK-LU-1 cells harboring KRAS G12D mutant assessed as reduction in cell viability incubated for 72 hrs by MTT assay; format: functional, cell-based; details: SK-LU-1, 72 h
[19] = system: GTPase KRas (Homo sapiens), P01116 [G12C]; test: Covalent binding affinity to 6His tagged GDP bound human KRAS G12C mutant (1 to 169 residues) expressed in Escherichia coli BL21 (DE3) cells at 200 uM incubated for 24 hrs by LC-MS /MS analysis
[20] = system: NCI-H2228; test: Antiproliferative activity against human NCI-H2228 cells harboring wild type KRAS assessed as reduction in cell viability incubated for 72 hrs by MTT assay; format: functional, cell-based; details: NCI-H2228, 72 h
[21] = system: NCI-H358; test: Antiproliferative activity against human NCI-H358 cells harboring KRAS G12C mutant assessed as reduction in cell viability incubated for 72 hrs by MTT assay; format: functional, cell-based; details: NCI-H358, 72 h
[22] = Toxicity in BALB/c mouse xenografted with human NCI-H358 cells harboring KRAS G12C mutant assessed as effect on body weight at 10 to 15 mg/kg, ip administered for 21 days; format: organism-based; details: in vivo, 504 h, dose 10-15 mg/kg, time 21 day
[23] = Selectivity index, ratio of IC50 for human NCI-H2228 cells harboring wild type KRAS to IC50 for human NCI-H358 cells harboring KRAS G12C mutant; format: functional
[24] = target: GTPase KRas (Homo sapiens) (UniProt P01116); test: Covalent binding affinity to 6his tagged GDP bound human wildtype KRAS expressed in Escherichia coli BL21 (DE3) cells at 200 uM incubated for 24 hrs by LC-MS/MS analysis
[25] = Selectivity index, ratio of IC50 for human NCI-H2228 cells harboring wild type KRAS to IC50 for human NCI-H23 cells harboring KRAS G12C mutant; format: functional
[26] = system: NCI-H358; test: Antitumor activity against human NCI-H358 cells harboring KRAS G12C mutant xenografted in BALB/c mouse assessed as reduction in tumor growth at 10 to 15 mg/kg, ip administered for 21 days by Ki67 staining based analysis; format: functional, organism-based; details: dose 10-15 mg/kg, time 21.0 day

O=C(CCl)N1CCN(C(=O)Nc2ccc(Cl)c(-c3ccccc3F)c2)CC1
inhibition [1]: Active | inhibition [2]: inactive | Activity [3]: Active | inhibition [4]: 30% | IC50 [5]: 9.3 µM | inhibition [6]: 40% | IC50 [7]: 1.3 µM | inhibition [8]: inactive | Ratio IC50 [9]: 12 | IC50 at 72 h [10]: 6.1 µM | Ratio IC50 [11]: 7 | Ratio IC50 [12]: 7 | inhibition in vivo at 15 mg/kg [13]: 50% | fold change (FC) [14]: 2 | inhibition [15]: Active | TGI [16]: Active | IC50 [17]: 4.4 µM | IC50 [18]: 4.6 µM | Activity [19]: Active | IC50 [20]: 11.6 µM | IC50 [21]: 0.5 µM | Activity [22]: Non-Toxic | Ratio IC50 [23]: 7 | Activity [24]: inactive | Ratio IC50 [25]: 7 | Activity [26]: Active

C=CC(=O)N1CCC(NC(=O)Nc2ccc(Cl)c(Cl)c2)CC1
IC50 [5]: > 100 µM | IC50 [7]: > 100 µM | IC50 [20]: 53.2 µM | IC50 [21]: > 100 µM

C=CC(=O)N1CC[C@@H](NC(=O)Nc2ccc(Cl)c(Cl)c2)C1
IC50 [5]: > 100 µM | IC50 [7]: 41.4 µM | IC50 [20]: 61.9 µM | IC50 [21]: 45.5 µM

O=C(Nc1ccc(Cl)c(C(F)(F)F)c1)N[C@@H]1CCN(C(=O)CCl)C1
IC50 [5]: 26.1 µM | IC50 [7]: 4.6 µM | IC50 [20]: 4 µM | IC50 [21]: 4.5 µM

C=CC(=O)NC1CCN(C(=O)c2cc(=O)c3cc(Cl)c(C(F)(F)F)cc3[nH]2)CC1
IC50 [5]: 46.2 µM | IC50 [7]: 8.2 µM | IC50 [20]: 42.4 µM | IC50 [21]: 18.5 µM

C=CC(=O)N1CC[C@H](NC(=O)c2cc(=O)c3cc(Cl)c(I)cc3[nH]2)C1
IC50 [5]: 24.4 µM | IC50 [7]: 10.3 µM | IC50 [20]: 13.1 µM | IC50 [21]: 14.9 µM

C=CS(=O)(=O)NC1CCN(C(=O)c2cc(=O)c3cc(Cl)c(I)cc3[nH]2)CC1
IC50 [5]: 11.9 µM | IC50 [7]: 6.4 µM | Ratio IC50 [11]: 2 | Ratio IC50 [12]: 2 | IC50 [20]: 19.4 µM | IC50 [21]: 9.1 µM | Ratio IC50 [23]: 2 | Ratio IC50 [25]: 2

C=CC(=O)N1CC[C@@H](NC(=O)Nc2ccc(Cl)cc2)C1
IC50 [5]: > 100 µM | IC50 [7]: > 100 µM | IC50 [20]: > 100 µM | IC50 [21]: > 100 µM

O=C(CCl)N1CCN(C(=O)Nc2ccc(Cl)c(C(F)(F)F)c2)CC1
IC50 [5]: 1.5 µM | IC50 [7]: 9.2 µM | IC50 [20]: 0.6 µM | IC50 [21]: 4.6 µM

C=CC(=O)N1CCC(NC(=O)Nc2ccc(Cl)cc2)CC1
IC50 [5]: > 100 µM | IC50 [7]: > 100 µM | IC50 [20]: > 100 µM | IC50 [21]: > 100 µM

C=CC(=O)N1CC[C@H](NC(=O)Nc2ccc(Cl)c(Cl)c2)C1
IC50 [5]: > 100 µM | IC50 [7]: 40.8 µM | IC50 [20]: 65.3 µM | IC50 [21]: 34.2 µM

C=CC(=O)N1CCC(NC(=O)Nc2ccc(Cl)c(C(F)(F)F)c2)CC1
IC50 [5]: > 100 µM | IC50 [7]: > 100 µM | IC50 [20]: 45.8 µM | IC50 [21]: > 100 µM

C=CC(=O)NC1CCN(C(=O)c2cc(=O)c3cc(Cl)ccc3[nH]2)CC1
IC50 [5]: > 100 µM | IC50 [7]: 34.8 µM | IC50 [20]: > 100 µM | IC50 [21]: 29.7 µM

O=C(Nc1ccc(Cl)c(-c2ccccc2F)c1)NC1CCN(C(=O)CCl)CC1
IC50 [5]: > 100 µM | IC50 [7]: 42.8 µM | IC50 [20]: 34.9 µM | IC50 [21]: 37.7 µM

C=CC(=O)NC1CCN(C(=O)c2cc(=O)c3cc(Cl)c(I)cc3[nH]2)CC1
IC50 [5]: 22.8 µM | IC50 [7]: 35.5 µM | IC50 [20]: 31.6 µM | IC50 [21]: 19.2 µM

From ChEMBL document CHEMBL5247585, “Design, synthesis, and evaluation of 4(1H)-quinolinone and urea derivatives as KRASG12C inhibitors with potent antitumor activity against KRAS-mutant non-small cell lung cancer” (Eur J Med Chem, 2022)
